For the test, the target named is T1, 5-HT4 receptor (Cavia porcellus, UniProt O70528).
T1 construct: Longitudinal muscle-myenteric plexus preparations, approximately 3 cm long, are obtained from the distal colon region; from tissue; host or cells: guinea-pig distal colon longitudinal muscle-myenteric plexus
In words: Guinea pig colon 5-HT4 receptor antagonist activity (5-HT evoked contraction of longitudinal muscle-myenteric plexus). Conditions: guinea-pig distal colon longitudinal muscle-myenteric plexus; contractions evoked by 5-HT; methiothepin 10^-7M and granisetron 10^-6M present; read-out: pIC50 (-log concentration of antagonist which reduces the contraction by 50%) (converted). The method, then: 5-HT4 Receptor Antagonist Activity
Male guinea-pigs, weighing 250-400 g are used. Longitudinal muscle-myenteric plexus preparations, approximately 3 cm long, are obtained from the distal colon region. These are suspended under a 0.5 g load in isolated tissue baths containing Krebs solution bubbled with 5% CO2 in O2 and maintained at 37° C. In all experiments, the Krebs solution also contains methiothepin 10^-7M and granisetron 10^-6M to block effects at 5-HT1, 5-HT2 and 5-HT3 receptors.
After construction of a simple concentration-response curve with 5-HT, using 30 s contact times and a 15 min dosing cycle, a concentration of 5-HT is selected so as to obtain a contraction of the muscle approximately 40-70% maximum(10^-9M approx). The tissue is then alternately dosed every 15 min with this concentration of 5-HT and then with an approximately equi-effective concentration of the nicotine receptor stimulant, dimethylphenylpiperazinium (DMPP). After obtaining consistent responses to both 5-HT and DMPP, increasing concentrations of a putative 5-HT4 receptor antagonist are then added to the bathing solution. The effects of this compound are then determined as a percentage reduction of the contractions evoked by 5-HT or by DMPP. […] A compound which reduces the response to 5-HT but not to DMPP is believed to act as a 5-HT4 receptor antagonist.

T1 sequence (O70528 whole entry): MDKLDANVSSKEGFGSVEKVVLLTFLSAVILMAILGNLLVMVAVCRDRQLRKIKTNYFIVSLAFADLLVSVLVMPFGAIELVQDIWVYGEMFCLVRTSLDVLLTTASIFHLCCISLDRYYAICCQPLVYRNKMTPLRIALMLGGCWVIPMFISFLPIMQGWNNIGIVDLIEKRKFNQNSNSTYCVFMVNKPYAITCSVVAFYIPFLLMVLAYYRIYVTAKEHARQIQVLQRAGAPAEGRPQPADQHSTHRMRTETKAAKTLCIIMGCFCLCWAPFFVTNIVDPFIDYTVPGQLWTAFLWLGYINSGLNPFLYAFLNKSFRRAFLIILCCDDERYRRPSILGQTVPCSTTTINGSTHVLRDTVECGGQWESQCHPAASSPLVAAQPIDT

As to `CCCCN1CCC(CCC(=O)c2cn(C)c3ccccc23)CC1` [Example 1, 1-(1-Methyl-1H-indol-3-yl)-3-(1-butylpiperidin-4-yl)propan-1-one], the IC50 is 158 nM.
